Entries after “also recorded” stand apart in the source; their conditions may differ. Where two headings read alike, the source gives them in different places.
Columns and labels:
[1] = test system: P. falciparum NF54 male gametocytes (stage V); test: Male gamete exflagellation assay; assay type: cell-based, Plasmodium falciparum; conditions: for Inhibition of male exflagellation at 1 µM: 48 h; for activity at 1 µM: Plasmodium falciparum
Protocol: The above selected 30 compounds were subjected to a phenotypic male gamete exflagellation assay. This assay measures the viability of male gametocytes by quantitating the final step of maturation into motile microgametes in vitro[24]. This process naturally occurs in the mosquito gut within minutes from the blood meal. The acquisition of time lapse videos of gamete motility in bright field microscopy and the subsequent analysis to count exflagellation centres were performed in an automated HTS format in 384-well plates. The compounds were tested in two independent biological replicates at the concentration of 1 µM. […] The results of this study led to the identification of 16 compounds with anti-exflagellation activity (Fig. 4). […] The standard membrane feeding assay (SMFA) is used to measure the parasite transmission through mosquito. In this assay, mature stage V gametocytes of the P. falciparum strain NF54-hsp70-luc were treated with 1 and 10 µM of the nine selected compounds for 24 h, added with human red blood cells and serum to achieve a haematocrit of 50% and then fed to mosquitoes. Luminescence was analyzed in […] 8 days post-feeding.
Asexual parasites of the NF54 line, kindly obtained from Elena Levashina’s laboratory (Max Plank Institute for Infection Biology, Berlin, Germany), were seeded at 1% total parasitemia and grown for 16 days changing medium every day until development of stage V gametocytes (about 1–2% of stage V gametocytemia). 100 µl of gametocyte culture was seeded in each well of a 96 well-plate and 100 µl of 2× concentration of compounds or DMSO as control were added to each well to achieve the desired final concentration. Assay plates were incubated for 48 h at 37 °C in 4% CO2, 3% O2, and 93% N2 modified atmosphere. After the incubation period, 100 µl of medium were removed from each well and the other 100 µl were transferred to a black imaging 96 well plate (ibidi) containing 100 µl of complete medium supplemented with 40 µM of xanthurenic acid. After 15 min, exflagellation events were captured by three ten-second videos each well with an Olympus IX83 inverted microscope with a UPLSAPO 10× N.A. 0.75 objective (Olympus, Japan), equipped with a Hamamatsu ORCA-Flash 4.0 V3 camera. Each video was analyzed using the Icy bio-image analysis software (http://icy.bioimageanalysis.org/) to count the number of exflagellation events.

[2] = test system: P. falciparum NF54 hsp86-PpyRE13 asexual stages; test: P. falciparum asexual stage assay (pLDH); assay type: cell-based, Plasmodium falciparum; conditions: Plasmodium falciparum, NF54, read-out: NF54 Hsp86 PpYRE13 (IC50 nM)
Protocol: With the selected 84 compounds, the subsequent step aimed at determining the gametocyte inhibition potency and the parasite stage selectivity between the gametocytes and the asexual stages in the NF54 hsp86-PpyRE13. […] Similar data were obtained considering the gametocyte IC50 values measured in the NF54 pfs16-GFP-PyLUC strain (see Supplementary Data 2).
Parasite proliferation assays were performed in 384-well plates (Thermo, 4332, USA) with a starting parasitemia of 0.25% at a haematocrit of 2% by quantification of parasite lactate dehydrogenase (pLDH). Compounds or DMSO as control were pre dispensed on plates, from 10 mM DMSO stock solutions, via an acoustic droplet ejection device (ATS-100, EDC Biosystems) to achieve de final desired concentration. Assay plates were incubated for 72 h at 37 °C in 4% CO2, 3% O2, and 93% N2 modified atmosphere. After the incubation period, plates are frozen at −80 °C for two h and then thawed at room temperature for 2 h. Then, 50 µL of the developer solution (70 mM Tris-HCl pH 8.0, 0.5% Tween-20, 100 mM Lithium L-Lactate, 125 µM nitro blue tetrazolium, 2 U/ml diaphorase and 100 µM 3-Acetylpyridine Adenine Dinucleotide) are added to each well and let to react for 10 min. Absorbance was then read at 650 nm by a suitable spectrophotometer.

[3] = test system: HeLa cells; test: HeLa cell proliferation assay (CellTiter Glo); assay type: cell-based, human; conditions: Homo sapiens
Protocol: In addition, we tested the 84 compounds in a dose-response fashion on HeLa cells to quantitatively monitor their cytotoxicity potential.
HeLa cells (CCL-2, ATCC, USA) were cultured in DMEM without phenol red (Thermo, 11880, USA) + 10% FBS + 1X PenStrep + 1X Gln. They were plated in a 384-well plate (Thermo, 4334-11, USA) to a density of 2000 cells per well and let recover for 4 h at 37 °C, 5% CO2 in a humidified atmosphere. After the recovery, compounds were transferred to assay plates as per compound preparation method. Assay plates were then incubated at 37 °C, 5% CO2 in a humidified atmosphere for 72 h. Cell viability was measured by the CellTiTer Glo (Promega, G8080, USA) as per manufacturer instruction.

[4] = test system: P. falciparum strain NF54-hsp70-luc stage V gametocytes fed to Anopheles stephensi mosquitoes; test: whole plant or invertebrate; assay type: in vivo, Plasmodium falciparum; conditions: for transmission blocking activity in SMFA (words, rank): tested at 1 and 10 µM
Protocol: The above selected 30 compounds were subjected to a phenotypic male gamete exflagellation assay. This assay measures the viability of male gametocytes by quantitating the final step of maturation into motile microgametes in vitro[24]. This process naturally occurs in the mosquito gut within minutes from the blood meal. The acquisition of time lapse videos of gamete motility in bright field microscopy and the subsequent analysis to count exflagellation centres were performed in an automated HTS format in 384-well plates. The compounds were tested in two independent biological replicates at the concentration of 1 µM. […] The standard membrane feeding assay (SMFA) is used to measure the parasite transmission through mosquito. In this assay, mature stage V gametocytes of the P. falciparum strain NF54-hsp70-luc were treated with 1 and 10 µM of the nine selected compounds for 24 h, added with human red blood cells and serum to achieve a haematocrit of 50% and then fed to mosquitoes. Luminescence was analyzed in the mosquito salivary glands 8 days post-feeding.
SMFA was performed commercially by TropiQ Health Sciences (Nijmegen, The Netherlands). Test samples were diluted in DMSO and then in RPMI medium (Gibco, 51800043) to achieve a final DMSO concentration of 0.1%. Diluted samples were combined with stage V gametocytes from P. falciparum strain NF54-hsp70-luc and incubated for 24 h. Subsequently, human red blood cells and human serum with the sample were added to achieve a haematocrit of 50%. The blood meal was fed to two-day old Anopheles stephensi mosquitoes that were starved the night prior to the blood meal. […] Mosquito infection was analyzed 8 days post-feeding by luminescence measurements of whole mosquitoes as described previously. For each feeder, luminescence intensity was analyzed in 15–24 mosquitoes per feeder (N = 1, n = 15–24). Luminescence background levels were determined from 15–24 uninfected mosquitoes. Controls: vehicle (0.1% DMSO) in duplicate.

[5] = NF54, read-out: Exflagellation @ 1 uM (% of DMSO) 1
[6] = NF54, read-out: Exflagellation @ 1 uM (% of DMSO) 2

Structure (SMILES)	Inhibition of male exflagellation at 1 µM ([1]; 1 µM, Replicate 1)	Inhibition of male exflagellation at 1 µM ([1]; 1 µM, Replicate 2)	activity at 1 µM [1, 5] [%]	activity at 1 µM [1, 6] [%]	IC50 [2] [nM]	IC50 [3] [nM]	SMFA (average # of events) 1 µM ([4]; 1 µM)	SMFA (average # of events) 10 µM [4]	transmission blocking activity in SMFA (words, rank) ([4]; 24 h treatment)	male gamete exflagellation reduced to ([1]; 1 µM)	transmission blocking in SMFA ([4]; 1 µM, 24 h treatment)	inhibition at 1 µM ([4]; read-out: inhibition of parasite transmission (SMFA)) [%]
OC(c1ccc(Cl)cc1)C1CCN(CCCN2CCC(C(O)c3ccc(Cl)cc3)CC2)CC1 (centres unmarked) [Compound 13]	15.4	64.1	15.4	64.1	1740	4510	488.21 ± 436.95	7.92 ± 1.44	second most active			
O=C(c1ccc([N+](=O)[O-])o1)N1CCC(Cn2cnc3ccccc32)CC1 [Compound 69]			17.3	57.7	6150	11300	2021.92 ± 1839.86	6.17 ± 1.81				
COc1ccccc1Cn1cc2c(-c3ccc(F)cc3)nnc-2c2cc(OC)c(OC)cc21 [Compound 31]	80.597	111.628	80.6	112	967	5000	2637.13 ± 1570.14	1559.87 ± 983.2	moderate transmission blocker			
Cc1ccc(Nc2cc(C)nc(Nc3ccc(NC(=O)c4cc5ccccc5oc4=O)cc3)n2)cc1 [Compound 63]	62.7119	21.3333	62.7	21.3	1730	8690	2365.33 ± 1952.29	6.33 ± 1.79				
COc1cc(CNCC2CCNCC2)ccc1OCc1cccc(Cl)c1 [Compound 53]	19.2	35.9	19.2	35.9	2360	5340	10.04 ± 12.81	6.29 ± 1.85		20–30%	most active; also recorded: equivalent to that of the positive control MMV0048	~100
COc1ccc(NC(=O)Nc2ccc(Nc3nc(C)cc(Nc4ccc(C)cc4)n3)cc2)cc1 [Compound 65]	5.085	52.8	5.08	52.8	904	4500	4000.86 ± 3085.37	5.96 ± 1.99				
COc1ccc(Nc2cc(C)nc(Nc3ccc(NC(=O)c4cc(C)cc(C)c4)cc3)n2)cc1 [Compound 64]	108.475	123.2	108	123	437	8100	3707.46 ± 3510.94	3885.67 ± 4295.41				
Clc1ccc(Nc2nc(-c3ccccn3)cs2)nc1 [Compound 39]	30.5085	73.2558	30.5	73.3	540	2950	1612.33 ± 1234.03	7.33 ± 2.82	efficiently blocks parasite transmission			
Cc1ccc2nc(-c3ccccc3)c(CSc3cccc[n+]3[O-])n2c1 [Compound 16]	23.1	19.2	23.1	19.2	1270	9510	1226.92 ± 1130.89	9.5 ± 9.34	third most active			
